Values after ≈ are worked out from the molar mass of the structure shown. Where a SMILES comes first, the peptide text is derived from it.
Details: not given
With `O=C(O)C1CCNCC1C(=O)O` (stereo unspecified) the solubility was 289 mM (≈ 50000 µg/mL). Work on `CCS(=O)(=O)CCSP(=S)(OC)OC` yielded a solubility of 2.87 mM (≈ 800 µg/mL). Work on `NC(CC(=O)O)c1cccc2ccccc12` (stereo unspecified) yielded a solubility of 25.7 mM (≈ 5530 µg/mL). For `CCOC(OCC)C(C)=O`, the solubility was 622 mM (≈ 91000 µg/mL). `CC(C)CC1OCCO1` showed a solubility of 427 mM (≈ 55600 µg/mL). In the case of `Oc1ccc(Sc2ccccc2)cc1`, the solubility was 1.68 mM (≈ 340 µg/mL). `CCCC(=O)OCCOCCOCCOC(=O)CCC` showed a solubility of 27.6 mM (≈ 8000 µg/mL). `Cn1cnc2nc(Cl)nc(Cl)c21` showed a solubility of 70.4 mM (≈ 14300 µg/mL). Work on `O=C(c1ccc(Cl)cc1Cl)N(O)c1ccccc1` yielded a solubility of 0.213 mM (≈ 60 µg/mL). In the case of `CCOc1ccc(NC(=O)CO)cc1`, the solubility was 7.84 mM (≈ 1530 µg/mL). For `CCOC(=O)[C@H](C)NC(=O)CCl`, the solubility was 345 mM (≈ 66700 µg/mL). Work on `Cn1c(=O)[nH]n(-c2ccccc2)c1=O` yielded a solubility of 1.05 mM (≈ 200 µg/mL). `CC(C)C=CCC(=O)O` gave a solubility of 71 mM (≈ 9100 µg/mL). With `CCCCOC(=O)CCOC` the solubility was 61.2 mM (≈ 9800 µg/mL).

Same assay, conditions: 20 °C
Work on `COc1c(C(=O)O)cccc1C(=O)O` yielded a solubility of 5.1 mM (≈ 1000 µg/mL). With `NC(=O)C(Br)(Br)Br` the solubility was 54.1 mM (≈ 16000 µg/mL). `O=[N+]([O-])c1cccc(CO)c1` showed a solubility of 3.85 mM (≈ 590 µg/mL). Compound `S=C=NCCc1ccccc1` has a solubility of 0.674 mM (≈ 110 µg/mL). With `O=C(O)CCCP(=O)(O)O` the solubility was 3170 mM (≈ 533000 µg/mL). `NCCCCCCNCCCCCCCCCCC(=O)O` gave a solubility of 4.99 mM (≈ 1500 µg/mL). Work on `CCC(=O)OCc1ccc(Cl)cc1Cl` yielded a solubility of 0.858 mM (≈ 200 µg/mL). Work on `Nc1ccncc1` yielded a solubility of 885 mM (≈ 83300 µg/mL). Work on `COc1cc(C(C)=O)ccc1O` yielded a solubility of 30.1 mM (≈ 5000 µg/mL). `Cn1c(=O)c2n[se]nc2n(C)c1=O` gave a solubility of 5.02 mM (≈ 1230 µg/mL). With `O=Cc1ccc(Br)o1` the solubility was 28.6 mM (≈ 5000 µg/mL). For `O=c1ncc2[nH]cnc2[nH]1`, the solubility was 19.3 mM (≈ 2630 µg/mL). `CCCCOC(=O)c1c(C(=O)O)cccc1[N+](=O)[O-]` showed a solubility of 1.91 mM (≈ 510 µg/mL). With `OCC1=C[C@@H](O)[C@@H]2C=CO[C@@H](OC3OC(CO)C(O)C(O)C3O)[C@H]12` (stereo partly specified) the solubility was 1030 mM (≈ 356000 µg/mL). For `CCOC(=O)c1c(C)oc(C)c(C(=O)OCC)c1=O`, the solubility was 29.8 mM (≈ 8000 µg/mL). `CC(NC(N)=O)C(=O)O` (stereo unspecified) showed a solubility of 133 mM (≈ 17600 µg/mL). Work on `CCC(C)(O)C(O)c1ccccc1` (stereo unspecified) yielded a solubility of 18.9 mM (≈ 3400 µg/mL). For `CCc1nc2ncnc(O)c2nc1CC`, the solubility was 12.2 mM (≈ 2500 µg/mL). Compound `O=C(O)CC(O)C(=O)O` (stereo unspecified) has a solubility of 5790 mM (≈ 777000 µg/mL). For `N[C@@H](C(=O)O)[C@@H](O)[C@H](O)[C@H](O)CO`, the solubility was 138 mM (≈ 27000 µg/mL).

Same assay, conditions: 21 °C
`O=C(O)c1ccccc1C(=O)c1ccc(O)cc1` gave a solubility of 2.61 mM (≈ 632 µg/mL). Compound `O=C(O)COc1ccc([N+](=O)[O-])cc1[N+](=O)[O-]` has a solubility of 11.6 mM (≈ 2800 µg/mL).

Same assay, conditions: 22 °C
With `O=C1CCCCCCCCCN1` the solubility was 13 mM (≈ 2200 µg/mL). `O=C1CCCCCCCCN1` showed a solubility of 84.4 mM (≈ 13100 µg/mL).

Same assay, conditions: 23 °C
For `Nc1cc([N+](=O)[O-])ccc1O`, the solubility was 6 mM (≈ 925 µg/mL).

Same assay, conditions: 25 °C
`CCC(NC=O)C(=O)O` (stereo unspecified) gave a solubility of 256 mM (≈ 33600 µg/mL). With `CC1(C)OC(=O)c2ccccc21` the solubility was 13.5 mM (≈ 2200 µg/mL). For `CCCCCCCOC(=O)c1cccnc1`, the solubility was 1.81 mM (≈ 400 µg/mL). With `O=C(O)[C@@H]1CC[C@H](C(=O)O)SS1` the solubility was 44.9 mM (≈ 9360 µg/mL). For `CCC1OC(=O)c2ccccc21` (stereo unspecified), the solubility was 17.9 mM (≈ 2900 µg/mL). Work on `COc1cc(Br)c2c(c1OC)C(=O)OC2` yielded a solubility of 0.117 mM (≈ 32 µg/mL). `CC(=O)CC(CC(=O)O)c1ccccc1` (stereo unspecified) showed a solubility of 35.8 mM (≈ 7380 µg/mL). `CSc1ncccn1` showed a solubility of 396 mM (≈ 50000 µg/mL). Work on `O=C(O)CCC(=O)c1ccc2ccccc2c1` yielded a solubility of 0.14 mM (≈ 32 µg/mL). Work on `O=C(O)c1cccc2cccnc12` yielded a solubility of 18 mM (≈ 3120 µg/mL). `NC(=O)c1cccc(S(N)(=O)=O)c1` showed a solubility of 6.99 mM (≈ 1400 µg/mL). In the case of `CCCC(=O)Oc1ccc([N+](=O)[O-])cc1`, the solubility was 0.115 mM (≈ 24 µg/mL). `CCCCOC(=O)CCOCC` gave a solubility of 23 mM (≈ 4000 µg/mL). `CCCCCCCCCOC(=O)c1cccnc1` gave a solubility of 0.802 mM (≈ 200 µg/mL). Compound `CC(=O)c1cc(O)c(O)c(O)c1` has a solubility of 33.8 mM (≈ 5680 µg/mL). With `CCCOC(=O)CCOC` the solubility was 219 mM (≈ 32000 µg/mL). Compound `CCN1CC(=O)N=C1N` has a solubility of 684 mM (≈ 87000 µg/mL). Work on `CC(C)C[C@H](N)C(=O)N[C@@H](CCC(=O)O)C(=O)O` (H-Leu-Glu-OH) yielded a solubility of 127 mM (≈ 33000 µg/mL). Compound `C[Si](C)(C)CCN` has a solubility of 15.6 mM (≈ 1830 µg/mL). `CCCC(C)(O)CCC` gave a solubility of 25.9 mM (≈ 3370 µg/mL). With `CCC(CC)COC(=O)NS(N)(=O)=O` the solubility was 17.8 mM (≈ 4000 µg/mL). For `CCCCOC(=O)NS(N)(=O)=O`, the solubility was 91.7 mM (≈ 18000 µg/mL).

Same assay, conditions: 27 °C
Work on `Cc1c2c(cc3c1ccc1ccccc13)CCCC2` yielded a solubility of 0.000179 mM (≈ 0.044 µg/mL).

Same assay, conditions: 28 °C
Compound `NC(=O)NCNC(N)=O` has a solubility of 223 mM (≈ 29400 µg/mL).

Same assay, conditions: 30 °C
With `CCCCOC(=O)c1ccc(O)c(I)c1` the solubility was 0.125 mM (≈ 40 µg/mL). `CCCn1c(=O)c2c(ncn2C)n(C)c1=O` showed a solubility of 61.9 mM (≈ 13800 µg/mL). `C[C@H](Nc1ccccc1Cl)C(=O)O` (racemic) gave a solubility of 4.71 mM (≈ 940 µg/mL).

From the OPERA property sets (Mansouri et al. 2018)
